Experimental findings from ChEMBL document CHEMBL3872242, “Anti-inflammatory tetraquinane diterpenoids from a Crinipellis species” (Bioorg Med Chem, 2017) are described below.

Molecules are shown by their SMILES. Activity calls are given as the source filed them. The rule behind the calls is not given here.

Series [1] concerns MONO-MAC-6. The series can be described thus: Inhibition of human THP1 cells derived IL-8 promoter dependent transcription activity expressed in LPS/INF-gamma stimulated human MONO-MAC-6 cells measured after 4 hrs by luciferase reporter gene assay. The class given is functional, cell-based. The settings on record: MONO-MAC-6, 4 h.
The test system of series [2] is MONO-MAC-6. As to the kind of experiment: Inhibition of CXCL11 mRNA expression in LPS/INF-gamma stimulated human MONO-MAC-6 cells at 30 uM preincubated for 1 hr followed by LPS/INF-gamma stimulation measured after 16 hrs. The class given is functional, cell-based.
Series [3] can be described thus: Inhibition of NF-kappaB (unknown origin) expressed in LPS/INF-gamma-stimulated human MONO-MAC-6 cells measured after 4 hrs by luciferase reporter gene assay. The format is cell-based. The settings on record: MONO-MAC-6, 4 h. In general terms: In a reporter assay the amount or activity of a reporter protein is the signal.
The nature of series [4]: Cytotoxicity against human MONO-MAC-6 cells up to 50 uM measured after 24 hrs by XTT assay. The class given is toxicity, cell-based. The settings on record: mono-mac-6, 24 h.
Series [5] in a line: Down regulation of […] mRNA expression in LPS/INF-gamma stimulated human MONO-MAC-6 cells at 30 uM preincubated for 1 hr followed by LPS/INF-gamma stimulation measured after 4 hrs by quantitative RT-PCR analysis. The class given is functional, cell-based.
The test system of series [6] is MONO-MAC-6. As to the kind of experiment: Inhibition of CXCL10 mRNA expression in LPS/INF-gamma stimulated human MONO-MAC-6 cells at 30 uM preincubated for 1 hr followed by LPS/INF-gamma stimulation measured after 16 hrs. The format is functional, cell-based.
Series [7] in a line: Inhibition of IRF (unknown origin) expressed in LPS/INF-gamma-stimulated human MONO-MAC-6 cells assessed as reduction in ISRE dependent transcription activity measured after 4 hrs by luciferase reporter gene assay. The format is cell-based. The settings on record: MONO-MAC-6, 4 h.
Series [8] has as its system MONO-MAC-6. As to the kind of experiment: Inhibition of LPS/INF-gamma induced CXCL10 promoter dependent transcription activity in human MONO-MAC-6 cells measured after 4 hrs by luciferase reporter gene assay. The class given is functional.
Series [9] is described as follows: Down regulation of COX-2 mRNA expression in LPS/INF-gamma stimulated human MONO-MAC-6 cells at 30 uM preincubated for 1 hr followed by LPS/INF-gamma stimulation measured after 4 hrs by quantitative RT-PCR analysis. The format is functional, cell-based.
A short description of series [10]: Down regulation of IL-8 mRNA expression in LPS/INF-gamma stimulated human MONO-MAC-6 cells at 30 uM preincubated for 1 hr followed by LPS/INF-gamma stimulation measured after 4 hrs by quantitative RT-PCR analysis. The class given is functional, cell-based.
For series [11], the system named is MONO-MAC-6. The series can be described thus: Inhibition of CCL3 mRNA expression in LPS/INF-gamma stimulated human MONO-MAC-6 cells at 30 uM preincubated for 1 hr followed by LPS/INF-gamma stimulation measured after 16 hrs. The format is functional, cell-based.
The nature of series [12]: Effect on constitutive activity of EF-1alpha expressed in human MONO-MAC-6 cells up to 50 uM measured after 4 hrs by luciferase reporter gene assay. Particulars: mono-mac-6, 4 h. The format is ADME, cell-based.
Series [13] deals with MONO-MAC-6. As to the kind of experiment: Inhibition of IL-8 mRNA expression in LPS/INF-gamma stimulated human MONO-MAC-6 cells at 30 uM preincubated for 1 hr followed by LPS/INF-gamma stimulation measured after 16 hrs. The class given is functional, cell-based.
In series [14] the test system is MONO-MAC-6. The series can be described thus: Inhibition of IL-6 mRNA expression in LPS/INF-gamma stimulated human MONO-MAC-6 cells at 30 uM preincubated for 1 hr followed by LPS/INF-gamma stimulation measured after 16 hrs. The format is functional, cell-based.
The subject of series [15] is MONO-MAC-6. The series can be described thus: Inhibition of CCL1 mRNA expression in LPS/INF-gamma stimulated human MONO-MAC-6 cells at 30 uM preincubated for 1 hr followed by LPS/INF-gamma stimulation measured after 16 hrs. The format is functional, cell-based.
A short description of series [16]: Down regulation of IL-6 mRNA expression in LPS/INF-gamma stimulated human MONO-MAC-6 cells at 30 uM preincubated for 1 hr followed by LPS/INF-gamma stimulation measured after 4 hrs by quantitative RT-PCR analysis. The format is functional, cell-based.
Series [17] deals with MONO-MAC-6. As to the kind of experiment: Inhibition of TNF-alpha mRNA expression in LPS/INF-gamma stimulated human MONO-MAC-6 cells at 30 uM preincubated for 1 hr followed by LPS/INF-gamma stimulation measured after 16 hrs. The class given is functional, cell-based.
The nature of series [18]: Effect on GAPDH mRNA expression in human MONO-MAC-6 cells at 30 to 60 uM preincubated for 1 hr followed by LPS/INF-gamma stimulation measured after 4 hrs by quantitative RT-PCR analysis. The format is ADME, cell-based. Particulars: mono-mac-6, 4 h.
A short description of series [19]: Down regulation of CCL2 mRNA expression in LPS/INF-gamma stimulated human MONO-MAC-6 cells at 30 uM preincubated for 1 hr followed by LPS/INF-gamma stimulation measured after 4 hrs by quantitative RT-PCR analysis. The format is functional, cell-based.
Series [20] in a line: Down regulation of TNF-alpha mRNA expression in LPS/INF-gamma stimulated human MONO-MAC-6 cells at 30 uM preincubated for 1 hr followed by LPS/INF-gamma stimulation measured after 4 hrs by quantitative RT-PCR analysis. The class given is functional, cell-based.
The test system of series [21] is MONO-MAC-6. As to the kind of experiment: Inhibition of CXCL1 mRNA expression in LPS/INF-gamma stimulated human MONO-MAC-6 cells at 30 uM preincubated for 1 hr followed by LPS/INF-gamma stimulation measured after 16 hrs. The class given is functional, cell-based.
The test system of series [22] is MONO-MAC-6. As to the kind of experiment: Inhibition of IL-23 mRNA expression in LPS/INF-gamma stimulated human MONO-MAC-6 cells at 30 uM preincubated for 1 hr followed by LPS/INF-gamma stimulation measured after 16 hrs. The class given is functional, cell-based.
Series [23] can be described thus: Down regulation of […] mRNA expression in LPS/INF-gamma stimulated human MONO-MAC-6 cells at 3.8 uM preincubated for 1 hr followed by LPS/INF-gamma stimulation measured after 4 hrs by quantitative RT-PCR analysis. The class given is functional, cell-based.
Series [24] relates to MONO-MAC-6. The series can be described thus: Inhibition of CCL1 mRNA expression in LPS/INF-gamma stimulated human MONO-MAC-6 cells at 3.8 uM preincubated for 1 hr followed by LPS/INF-gamma stimulation measured after 16 hrs. The class given is functional, cell-based.
Series [25] can be described thus: Effect on GAPDH mRNA expression in human MONO-MAC-6 cells at 2.52 to 3.8 uM preincubated for 1 hr followed by LPS/INF-gamma stimulation measured after 4 hrs by quantitative RT-PCR analysis. The format is ADME, cell-based. Particulars: mono-mac-6, 4 h.
Series [26] is described as follows: Down regulation of COX-2 mRNA expression in LPS/INF-gamma stimulated human MONO-MAC-6 cells at 3.8 uM preincubated for 1 hr followed by LPS/INF-gamma stimulation measured after 4 hrs by quantitative RT-PCR analysis. The format is functional, cell-based.
Series [27] in a line: Down regulation of IL-6 mRNA expression in LPS/INF-gamma stimulated human MONO-MAC-6 cells at 3.8 uM preincubated for 1 hr followed by LPS/INF-gamma stimulation measured after 4 hrs by quantitative RT-PCR analysis. The format is functional, cell-based.
Series [28] can be described thus: Down regulation of TNF-alpha mRNA expression in LPS/INF-gamma stimulated human MONO-MAC-6 cells at 3.8 uM preincubated for 1 hr followed by LPS/INF-gamma stimulation measured after 4 hrs by quantitative RT-PCR analysis. The format is functional, cell-based.
In series [29] the test system is MONO-MAC-6. The series can be described thus: Inhibition of IL-6 mRNA expression in LPS/INF-gamma stimulated human MONO-MAC-6 cells at 3.8 uM preincubated for 1 hr followed by LPS/INF-gamma stimulation measured after 16 hrs. The format is functional, cell-based.
In series [30] the test system is MONO-MAC-6. The series can be described thus: Inhibition of CXCL10 mRNA expression in LPS/INF-gamma stimulated human MONO-MAC-6 cells at 3.8 uM preincubated for 1 hr followed by LPS/INF-gamma stimulation measured after 16 hrs. The format is functional, cell-based.
Series [31] in a line: Down regulation of CCL2 mRNA expression in LPS/INF-gamma stimulated human MONO-MAC-6 cells at 3.8 uM preincubated for 1 hr followed by LPS/INF-gamma stimulation measured after 4 hrs by quantitative RT-PCR analysis. The format is functional, cell-based.
The test system of series [32] is MONO-MAC-6. The series can be described thus: Inhibition of IL-23 mRNA expression in LPS/INF-gamma stimulated human MONO-MAC-6 cells at 3.8 uM preincubated for 1 hr followed by LPS/INF-gamma stimulation measured after 16 hrs. The format is functional, cell-based.
The test system of series [33] is MONO-MAC-6. The series can be described thus: Inhibition of CCL3 mRNA expression in LPS/INF-gamma stimulated human MONO-MAC-6 cells at 3.8 uM preincubated for 1 hr followed by LPS/INF-gamma stimulation measured after 16 hrs. The format is functional, cell-based.
In series [34] the test system is MONO-MAC-6. The series can be described thus: Inhibition of CXCL11 mRNA expression in LPS/INF-gamma stimulated human MONO-MAC-6 cells at 3.8 uM preincubated for 1 hr followed by LPS/INF-gamma stimulation measured after 16 hrs. The format is functional, cell-based.
Series [35] deals with MONO-MAC-6. The series can be described thus: Inhibition of CXCL1 mRNA expression in LPS/INF-gamma stimulated human MONO-MAC-6 cells at 3.8 uM preincubated for 1 hr followed by LPS/INF-gamma stimulation measured after 16 hrs. The format is functional, cell-based.
Series [36] deals with MONO-MAC-6. As to the kind of experiment: Inhibition of TNF-alpha mRNA expression in LPS/INF-gamma stimulated human MONO-MAC-6 cells at 3.8 uM preincubated for 1 hr followed by LPS/INF-gamma stimulation measured after 16 hrs. The format is functional, cell-based.
In series [37] the test system is MONO-MAC-6. As to the kind of experiment: Inhibition of IL-8 mRNA expression in LPS/INF-gamma stimulated human MONO-MAC-6 cells at 3.8 uM preincubated for 1 hr followed by LPS/INF-gamma stimulation measured after 16 hrs. The format is functional, cell-based.
Series [38] in a line: Down regulation of IL-8 mRNA expression in LPS/INF-gamma stimulated human MONO-MAC-6 cells at 3.8 uM preincubated for 1 hr followed by LPS/INF-gamma stimulation measured after 4 hrs by quantitative RT-PCR analysis. The class given is functional, cell-based.

Regarding `CC(C)[C@H]1CC[C@]23C[C@@H]4[C@H](C)C(=O)[C@H]5O[C@]54[C@@]2(C)[C@@H](O)C(=O)[C@]13C`, the 50% inhibitory concentration (IC50) lay in the range of 7 to 7.5 µM in [1], 20 to 25 µM in series [3] and 40 to 45 µM in series [7]. For the same compound, the inhibition entry in series [2], in series [6], in series [11], in [13], in series [14] and in [15] was “Active” in each case. In addition, the inhibition entry in series [17], in series [21] and in series [22] was “Active” each time. For the same compound, the Activity entry in series [4], in series [12] and in [18] was “Non-Toxic” each time. Moreover, the result in [5], in [9], in series [10], in series [16], in series [19] and in series [20] was Active. Besides, in series [8], the inhibition entry was “Dose-dependent effect”.

Regarding `CC(C)[C@H]1CC[C@]23C[C@@H]4[C@H](C)C(=O)[C@H]5O[C@]54[C@@]2(C)CC(=O)[C@]13C`, the IC50 lay in the range of 0.9 to 1.2 µM in [1], 0.32 to 0.4 µM in [3] and 0.8 to 1 µM in [7]. Also, the outcome in series [23], in series [26], in series [27], in series [28], in [31] and in series [38] was Active. The inhibition entry in [24], in series [29], in series [30], in [32], in [33] and in [34] was “Active” each time. Further, the inhibition result in series [35], in [36] and in series [37] was “Active” in each case. Moreover, the Activity result in [4], in series [25] and in series [12] was “Non-Toxic” each time. Also, the inhibition result in series [8] is “Dose-dependent effect”.

With `C=C[C@H]1CC[C@]23C[C@@H]4[C@H](C)[C@@H](O)[C@H]5O[C@@]45[C@@]2(C)CC(=O)[C@]13C`, the IC50 in series [1], in [3] and in [7] was > 50 µM in each case. Moreover, the Activity entry in series [4] and in series [12] was “Non-Toxic” in each case.

One may read the IC50 as the concentration that gives 50% inhibition.
